These results are taken from US20240239790A1, “7-Morpholino-1,6-Naphthyridin-5-yl Derivatives and Pharmaceutical Compositions Thereof Useful as DNA-PK Inhibitor” (adMare Therapeutics Society, priority 2021, published 2024).

For one data set, the target named is T1, DNA-PK (Homo sapiens, UniProt P78527).
T1 construct: purchased Invitrogen PR9107A
The experiment in a line: DNA-PK Assay for Biochemical Enzymatic Inhibition (ADP Glo Kinase assay). To be noted: DNA-PK enzyme, Table 1. The essentials: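 Human DNA-PK (25 ng) preincubated 15 min with compounds (ten three-fold dilutions) in HEPES pH 7.5, MgCl2, KCl, calf thymus DNA buffer, then substrate 434.4 μM and ATP 64.4 μM (final) for 60 min at room temperature. ADP-Glo luminescence; percent inhibition fitted by four-parameter regression for IC50.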
Background: ADP-Glo first removes unused ATP, then detects ADP through luciferase.

Data set [1] is described as follows: Microsomal Stability Assay, mouse liver microsomes. In kind it is in vitro ADME. The settings on record: for microsomal CLint at 0.1 uM: male, CD-1, pH 7.4, mouse liver microsomes 0.1 mg/mL, 0.1 uM compound; for Microsomal Stability Mouse % rem. 60 min: mouse liver microsomes. The protocol: (§1) Samples were then mixed and centrifuged. Supernatants were used for HPLC-MS/MS analysis. […] Peak areas corresponding to the test compound were recorded.
(In general: Microsomes from liver hold many membrane-bound enzymes, among them those of drug oxidation.)

The nature of data set [2]: Pharmacokinetic study in mice (IV and PO), plasma. In kind it is in vivo, mouse. To be noted: for AUC(0-t) / half-life / AUC(0-inf) / Cmax / Cmax at 5 min: female, C57BL/6; for AUC(0-t) / half-life / AUC(0-inf) / Cmax / AUC—% Extrap—obs / Cl_obs / Vz_obs / Cmax at 5 min / AUC_% Extrap_obs: mouse plasma; for Cmax: read-out: Cmax (5 min); for Rsq: Mouse Plasma, fit of NCA. The protocol: Pharmacokinetic analysis of compounds was conducted following bolus intravenous (IV) or bolus oral (PO) gavage in mice. Female mice (C57BL/6) in the 17-26 g range were weighed, and then administered an individually prescribed dose volume based on body weight of formulated compound via the intravenous (IV; tail vein) or oral gavage (PO) route (IV 5 mL/kg; PO 10 mL/kg). At selected timepoints post administration, blood was collected into vials with anticoagulant, processed for plasma by centrifugation, and then kept frozen ([…]) until analysis.
The in-vivo study plasma samples were analyzed using Ultra Performance Liquid Chromatography (UPLC) with tandem mass spectrometry (MS/MS) detection in multiple reaction monitoring (MRM) mode. A generic bioanalytical method involving plasma sample extraction and cleanup by protein precipitation with acetonitrile was used followed by UPLC-MS/MS analysis.
A brief example of a generic bioanalytical UPLC-MS/MS method used for analysis of compounds in the in-vivo study plasma samples is as follows. Plasma samples were spiked with internal standard prior to extraction and cleanup by protein precipitation with ice cold acetonitrile containing 0.1% (v/v) ammonium hydroxide at a ratio of 3:1 (solvent:plasma) and centrifuged at 18213 rcf for 15 minutes at 4° C. to pellet precipitates. Aliquots of supernatants were transferred to a 96-well plate and evaporated to dryness at 40° C. under a stream of nitrogen gas. Samples were reconstituted in 50:50 acetonitrile/10 mM ammonium acetate buffer pH 8, mixed thoroughly and analyzed using Ultra Performance Liquid Chromatography (UPLC) with tandem mass spectrometry (MS/MS) detection in multiple reaction monitoring (MRM) mode. Matrix-matched calibration standards and quality control (QC) samples were prepared in naïve C57Bl/6 mouse plasma. The UPLC column used was Waters Acquity UPLC BEH C18 1.7 um, 2.1 mm×50 mm (with guard column). The UPLC mobile phase consisted of: Mobile phase A: 10 mM ammonium acetate in Water pH 8, and Mobile phase B: Acetonitrile. Separation was accomplished with a linear gradient of 5% mobile phase B to 95% mobile phase B in 2 min, and a flow rate of 0.35 mL/min. The MS/MS data acquisition was accomplished using 3 MRM Transitions in ESI+ mode. Parent ion mass 508.37 m/z-to-Daughter ions (m/z) 117.05, 232.13 and 270.22. The quantitation of concentrations in test samples was achieved by matrix-matched calibration with normalization using an internal standard. Data acquisition and analysis were performed using Waters MassLynx software with TargetLynx application manager.
Estimation of PK parameters was performed using independent noncompartmental model method by PHOENIX WinNonlin software.

Data set [3] can be described thus: Microsomal Stability Assay, human liver microsomes. The settings on record: for microsomal CLint at 0.1 uM: both sexes, pH 7.4, human liver microsomes 0.1 mg/mL, 0.1 uM compound; for Microsomal Stability Human % rem. 60 min: human liver microsomes. In kind it is in vitro ADME. The method, then: as §1
Where [4] appears, read: IV, 3 mg/kg, read-out: AUCINF—obs.
The mark [5] stands for this setting: PO, 10 mg/kg, read-out: AUCINF—obs.

Where two headings read alike, the source gives them in different places.

In general, IC50 refers to the midpoint of a concentration-inhibition curve. Usually microsomal CLint stands for the capacity of the preparation to metabolise the compound, expressed as a volume cleared per time. Lower therefore signals greater metabolic stability. A word on the AUC(0-t): it is exposure summed from dosing to a finite time, without extrapolation to infinity. Lower therefore signals less exposure. What is called half-life is the time needed for the level to fall by half in the phase considered. A low value points to fast loss. A word on the Cmax: it is the highest concentration seen after dosing. As for `O=C(COc1cnc(N[C@H]2CC[C@@H](Oc3nc(N4CCOCC4)cc4ncccc34)CC2)nc1)N1CCC1` [Compound 75, 1-(Azetidin-1-yl)-2-((2-(((1s,4s)-4-((7-morpholino-1,6-naphthyridin-5-yl)oxy)cyclohexyl)amino)pyrimidin-5-yl)oxy)ethan-1-one], at DNA-PK, the concentration for half-maximal inhibition (IC50) is less than 500 pM. Moreover, in data set [1], the microsomal CLint at 0.1 uM is less than 116 µL/min/mg and the “Microsomal Stability Mouse % rem. 60 min” value is reported as “G (% remaining = 50-75%)”. Further, in data set [2] (IV, 3 mg/kg), the area under the curve AUC(0-t) worked out at 7960 ng·h/mL, the half-life was 1.67 h, the Cmax stood at 6020 ng/mL and the “AUC—% Extrap—obs” value is 2.63%. In data set [2] (IV, 3 mg/kg), this molecule yielded a Cl_obs of 6.1168 mL/min/kg and a Vz_obs of 0.88515 L/kg. Besides, the AUC(0-inf) in data set [2] (setting [4]) is 8170 ng·h/mL. In data set [2] (PO, 10 mg/kg), the AUC(0-t) came to 18200 ng·h/mL, the half-life is 2.17 h, the Cmax turned out to be 5590 ng/mL and the “AUC—% Extrap—obs” value is 0.07%. In data set [2] (PO, 10 mg/kg), the Cl_obs is 9.1343 mL/min/kg and the Vz_obs is 1.71597 L/kg. In addition, in data set [2] (setting [5]), the AUC(0-inf) was found to be 18200 ng·h/mL. The F in data set [2] (mouse, PO, 10 mg/kg) is 69%. Also, in data set [3], the microsomal CLint at 0.1 uM is greater than 116 µL/min/mg and the “Microsomal Stability Human % rem. 60 min” value is given as “F (% remaining = 25-50%)”.

Consider `CN(C)C(=O)Cn1ccc2nc(N[C@H]3CC[C@@H](Oc4nc(N5CCOCC5)cc5ncccc45)CC3)ncc21` [Compound 86, N,N-Dimethyl-2-(2-(((1s,4s)-4-((7-morpholino-1,6-naphthyridin-5-yl)oxy)cyclohexyl)amino)-5H-pyrrolo[3,2-d]pyrimidin-5-yl)acetamide], for which the IC50 at DNA-PK is less than 500 pM. In data set [1], the intrinsic clearance (microsomal CLint) at 0.1 uM is less than 116 µL/min/mg and the “Microsomal Stability Mouse % rem. 60 min” value is “G (% remaining = 50-75%)”. Besides, in data set [2] (IV, 3 mg/kg), the AUC(0-t) was found to be 4100 ng·h/mL, the half-life is 1.77 h, the Cmax came out at 6450 ng/mL and the “AUC—% Extrap—obs” value came out at 1.44%. In data set [2] (IV, 3 mg/kg), this molecule returned a Cl_obs of 12.022 mL/min/kg and a Vz_obs of 1.8426 L/kg. Moreover, the AUC(0-inf) in data set [2] (setting [4]) turned out to be 4160 ng·h/mL. Moreover, in data set [2] (PO, 10 mg/kg), the exposure AUC(0-t) worked out at 2620 ng·h/mL, the half-life was 2.92 h, the Cmax worked out at 589 ng/mL and the “AUC—% Extrap—obs” value was found to be 0.47%. In data set [2] (PO, 10 mg/kg), this molecule registered a Cl_obs of 63.328 mL/min/kg and a Vz_obs of 16.019 L/kg. The AUC(0-inf) in data set [2] (setting [5]) was 2630 ng·h/mL. The molecule also had a F in data set [2] (mouse, PO, 10 mg/kg) of 19%. In data set [3], the intrinsic clearance (microsomal CLint) at 0.1 uM is less than 116 µL/min/mg and the “Microsomal Stability Human % rem. 60 min” value is reported as “G (% remaining = 50-75%)”.

Regarding `CN(C)C(=O)Cn1c(=O)n(C2CCOCC2)c2nc(N[C@H]3CC[C@@H](Oc4nc(N5CCOCC5)cc5ncccc45)CC3)ncc21` [Compound 97, N,N-Dimethyl-2-(2-(((1s,4s)-4-((7-morpholino-1,6-naphthyridin-5-yl)oxy)cyclohexyl)amino)-8-oxo-9-(tetrahydro-2H-pyran-4-yl)-8,9-dihydro-7H-purin-7-yl)acetamide], the half-inhibitory concentration (IC50) at DNA-PK was less than 500 pM. For the same molecule, in data set [1], the microsomal CLint at 0.1 uM was less than 116 µL/min/mg and the “Microsomal Stability Mouse % rem. 60 min” value is “F (% remaining = 25-50%)”. In data set [2] (IV, 3 mg/kg), this molecule showed a Rsq of 0.98, an AUC(0-t) of 4340 ng·h/mL, a Cmax at 5 min of 4860 ng/mL and a half-life of 2.21 h. In addition, in data set [2] (IV, 3 mg/kg), the “AUC_% Extrap_obs” value was 0.77%, the Cl_obs is 11.43 mL/min/kg and the Vz_obs turned out to be 2.18741 L/kg. Besides, in data set [2] (PO, 10 mg/kg), the Rsq came out at 0.98, the AUC(0-t) was 6770 ng·h/mL, the peak level (Cmax at 5 min) was 2520 ng/mL and the half-life is 2.07 h. Moreover, in data set [2] (PO, 10 mg/kg), the “AUC_% Extrap_obs” value is 0.03%, the Cl_obs worked out at 24.6043 mL/min/kg and the Vz_obs worked out at 4.41523 L/kg. The F in data set [2] (Mouse, PO 10 mg/kg vs IV 3 mg/kg) stood at 47%. In addition, the AUC(0-inf) in data set [2] (IV, 3 mg/kg, read-out: AUCINF_obs) came out at 4380 ng·h/mL. Further, in data set [2] (PO, 10 mg/kg, read-out: AUCINF_obs), the AUC(0-inf) is 6770 ng·h/mL. Further, in data set [3], the intrinsic clearance (microsomal CLint) at 0.1 uM is greater than 116 µL/min/mg and the “Microsomal Stability Human % rem. 60 min” value is on record as “E (% remaining = 0-25%)”.
